Data reported in patent US20240408169A1 (priority 2023, published 2024).
Read-outs that look alike come from different tables or passages of the source. *1 amine or outer side, *2 acyl side, *3 side chain or, on linkers, in order; H or OH if unused. Where a SMILES comes first, the peptide text is derived from it. Bridges are numbered along the chain shown (N, C = ends). [ ]: non-standard residue; d: D form. The star is where a group is joined. NMePhe(2-(4-MorPh),5-Cl) = CN[C@@H](Cc1cc(Cl)ccc1-c1ccc(N2CCOCC2)cc1)C(=O)O; X23 = CCN([C@@H](Cc1cc(Cl)ccc1-c1ccc(N2CCN(C)CC2)cc1)C(=O)[*:2])[*:1]; X59 = CC(c1ccc(-c2ccc(Cl)cc2C[C@@H](C(=O)[*:2])N(C)[*:1])cc1)N1CCOCC1; X35 = CN([C@@H](Cc1cc(Cl)ccc1-c1cnc2ccnn2c1)C(=O)[*:2])[*:1]; X76 = CN([C@@H](Cc1cc(Cl)ccc1-c1cnn2cccnc12)C(=O)[*:2])[*:1]; NMehhhLys(Me) = CN([C@@H](CCCCCCCN(C)[*:3])C(=O)[*:2])[*:1]; X51 = CSc1cncc(-c2ccc(Cl)cc2C[C@@H](C(=O)[*:2])N(C)[*:1])c1; X22 = CN([C@@H](Cc1cc(Cl)ccc1-c1cnn(C)c1)C(=O)[*:2])[*:1]; X104 = CN([C@@H](Cc1cc(Cl)ccc1C1=CCOCC1)C(=O)[*:2])[*:1]; NMe(hhhLys) = CN([C@@H](CCCCCCCN[*:3])C(=O)[*:2])[*:1]; X17 = CN([C@@H](Cc1cc(Cl)cnc1N1CCOCC1)C(=O)[*:2])[*:1]; NMe3Pal(2-OMe,5-Cl) = CN[C@@H](Cc1cc(Cl)cnc1OC)C(=O)O; Oxane2carbonyl(2R-CF3) = O=C([C@@]1(C(F)(F)F)CCCCO1)*; X28 = CN([C@@H](Cc1cc(Cl)cnc1OC1CCC1)C(=O)[*:2])[*:1]; Cyclobutanecarbonyl(1-CF3) = O=C(C1(C(F)(F)F)CCC1)*; cBuCO(3,3-F2-1-CF3) = O=C(C1(C(F)(F)F)CC(F)(F)C1)*; Pro(trans-4-F) = O=C(O)[C@@H]1C[C@@H](F)CN1; X27 = O=C([C@]1(C(F)(F)F)CCCCO1)*; Gly(cPr) = N[C@H](C(=O)O)C1CC1; X102 = C[C@]1(C(=O)*)CC1(F)F

Legend:
CyclinA2/CDK2 = biological target: T1, CyclinA2/CDK2 (Homo sapiens, UniProt P20248); assay: Fluorescence Polarization (FP) competitive binding assay, Cyclin A2/Cdk2;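 note: plates equilibrated two hours at room temperature before polarization reading, IC50 fitted from eight-concentration compound titration curves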
T1 construct: purchased CRELUX Protein Services

CyclinE1/CDK2 = biological target: T2, CyclinE1/CDK2 (Homo sapiens, UniProt P24864); assay: Fluorescence Polarization (FP) competitive binding assay, Cyclin E1/Cdk2;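 note: readings taken after two-hour equilibration at room temperature in HEPES buffer with NaCl, DTT, NP-40 and BSA, IC50 fitted from eight-concentration serial dilution series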
T2 construct: purchased Eurofins, discovery 14-475

OVCAR3 cells = assay: MTT proliferation assay, OVCAR3; assay type: cell-based; details: 5 days compound exposure, 1:3 serial dilution starting at 10 μM;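 note: compound given as an 8- or 10-point series, one day after plating, with exposure covering roughly 3-4 cell doublings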
WI-38 cells = assay: MTT proliferation assay, WI-38; assay type: cell-based; details: 3 days compound exposure, 1:3 serial dilution starting at 10 μM;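 note: Eight- or ten-point dilution series, with exposure length chosen to span about three to four cell doublings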
NCI-H1048 cells = assay: MTT proliferation assay, NCI-H1048; assay type: cell-based; details: 5 days compound exposure, 1:3 serial dilution starting at 10 μM;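 note: Dose-response in 96-well plates over 8 or 10 concentration points, with exposure spanning 3-4 cell doublings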
CyclinB1/CDK1 = biological target: T3, CyclinB1/CDK1 (Homo sapiens, UniProt P14635); assay: Fluorescence Polarization (FP) competitive binding assay, Cyclin B1/Cdk1;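 note: fluorescence polarization read after equilibration at room temperature, with IC50 taken from serially diluted dose-response curves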
T3 construct: purchased Eurofins, discovery 14-450

[1] = 8 nM Cyclin A2/Cdk2, 2 nM FAM probe; average of 2-3 independent experiments; read-out: Cyclin A FP IC50
[2] = 10 nM Cyclin E1/Cdk2, 2 nM FAM probe, average of 2-3 independent experiments, read-out: Cyclin E FP IC50
[3] = 10 nM Cyclin B1/Cdk1, 2 nM FAM probe; average of 2-3 independent experiments; read-out: Cyclin B FP IC50

Row | SMILES | IC50 (CyclinA2/CDK2; [1]) | IC50 (CyclinE1/CDK2; [2]) | GI50 (OVCAR3 cells) | GI50 (WI-38 cells) | GI50 (NCI-H1048 cells) | IC50 (CyclinB1/CDK1; [3]) | IC50 (CyclinA2/CDK2; read-out: Cyclin A FP IC50; 8 nM Cyclin A2/Cdk2, 2 nM FAM probe; average of 2-3 independent experiments) | IC50 (CyclinE1/CDK2) | IC50 (CyclinB1/CDK1; read-out: Cyclin B FP IC50; 10 nM Cyclin B1/Cdk1, 2 nM FAM probe; average of 2-3 independent experiments)
1 | CC[C@H](NC(=O)C1(C(F)(F)F)CC1)C(=O)N[C@@H](C)C(=O)N[C@H]1CC=CCCCCNC(=O)[C@H](Cc2cc(Cl)ccc2Cl)N(C)C(=O)[C@H](CC(C)C)NC1=O [Example 1, N—((S)-1-(((S)-1-(((3S,6S,9S)-3-(2,5-dichlorobenzyl)-6-isobutyl-4-methyl-2,5,8-trioxo-1,4,7-triazacyclohexadec-11-en-9-yl)amino)-1-oxopropan-2-yl)amino)-1-oxobutan-2-yl)-1-(trifluoromethyl)cyclopropane-1-carboxamide] | 210 nM | 440 nM | 6610 nM | 14600 nM | 4000 nM | 20 nM |  |  | 
2 | CC(C)C[C@@H]1NC(=O)[C@@H](N(C)C(=O)[C@@H](NC(=O)[C@@H]2C[C@@H](F)CN2C(=O)C2(C(F)(F)F)CCC2)C2CC2)CCCCCCCN(C)C(=O)[C@H](Cc2cc(Cl)cnc2OC2CCC2)N(C)C1=O [Example 139] ({Cyclobutanecarbonyl(1-CF3)}-[Pro(trans-4-F)][Gly(cPr)][NMehhhLys(Me)]L[X28]; lactam 3-C) | 20 nM | 100 nM | 150 nM | 6420 nM | 70 nM | 20 nM |  |  | 
3 | COc1ncc(Cl)cc1C[C@H]1C(=O)N(C)CCCCCCC[C@H](N(C)C(=O)[C@@H](NC(=O)[C@@H]2C[C@@H](F)CN2C(=O)[C@@]2(C(F)(F)F)CCCCO2)C2CC2)C(=O)N[C@@H](CC(C)C)C(=O)N1C [Example 223] ({Oxane2carbonyl(2R-CF3)}-[Pro(trans-4-F)][Gly(cPr)][NMehhhLys(Me)]L[NMe3Pal(2-OMe,5-Cl)]; lactam 3-C) |  |  | 10 nM | 7760 nM | 10 nM |  | 20 nM | 100 nM | 20 nM
4 | [2H]C([2H])([2H])n1cc(-c2ccc(Cl)cc2C[C@H]2C(=O)N(C)CCCCCCC[C@H](N(C)C(=O)[C@@H](NC(=O)[C@@H]3C[C@@H](F)CN3C(=O)C3(C(F)(F)F)CC(F)(F)C3)C3CC3)C(=O)N[C@@H](CC(C)C)C(=O)N2C)cn1 [Example 239] | 20 nM | 420 nM | 20 nM | 14300 nM | 20 nM | 20 nM |  |  | 
5 | CC(C)C[C@@H]1NC(=O)[C@@H](N(C)C(=O)[C@@H](NC(=O)[C@@H]2C[C@@H](F)CN2C(=O)[C@@]2(C)CC2(F)F)C2CC2)CCCCCCCN(C)C(=O)[C@H](Cc2cc(Cl)ccc2-c2ccc(N3CCOCC3)cc2)N(C)C1=O [Example 400] (X102-[Pro(trans-4-F)][Gly(cPr)][NMehhhLys(Me)]L[NMePhe(2-(4-MorPh),5-Cl)]; lactam 3-C) | 20 nM | 490 nM | 10 nM | 4610 nM | 10 nM | 20 nM |  |  | 
6 | CC(C)C[C@@H]1NC(=O)[C@@H](N(C)C(=O)[C@@H](NC(=O)[C@@H]2C[C@@H](F)CN2C(=O)C2(C(F)(F)F)CC(F)(F)C2)C2CC2)CCCCCCCN(C)C(=O)[C@H](Cc2cc(Cl)cnc2N2CCOCC2)N(C)C1=O [Example 320] ({cBuCO(3,3-F2-1-CF3)}-[Pro(trans-4-F)][Gly(cPr)][NMehhhLys(Me)]L[X17]; lactam 3-C) | 30 nM | 1450 nM | 20 nM | 15500 nM | 10 nM | 20 nM |  |  | 
7 | CCN1C(=O)[C@H](CC(C)C)NC(=O)[C@@H](N(C)C(=O)[C@@H](NC(=O)[C@@H]2C[C@@H](F)CN2C(=O)C2(C(F)(F)F)CC(F)(F)C2)C2CC2)CCCCCCCN(C)C(=O)[C@@H]1Cc1cc(Cl)ccc1-c1ccc(N2CCN(C)CC2)cc1 [Example 405] ({cBuCO(3,3-F2-1-CF3)}-[Pro(trans-4-F)][Gly(cPr)][NMehhhLys(Me)]L[X23]; lactam 3-C) | 50 nM | 2560 nM | 50 nM | 2160 nM | 40 nM | 20 nM |  |  | 
8 | CC(C)C[C@@H]1NC(=O)[C@@H](N(C)C(=O)[C@@H](NC(=O)[C@@H]2C[C@@H](F)CN2C(=O)C2(C(F)(F)F)CC(F)(F)C2)C2CC2)CCCCCCCN(C)C(=O)[C@H](Cc2cc(Cl)ccc2-c2cnc3ccnn3c2)N(C)C1=O [Example 172] ({cBuCO(3,3-F2-1-CF3)}-[Pro(trans-4-F)][Gly(cPr)][NMehhhLys(Me)]L[X35]; lactam 3-C) | 60 nM | 2430 nM | 60 nM | 13700 nM | 30 nM | 20 nM |  |  | 
9 | CC(C)C[C@@H]1NC(=O)[C@@H](N(C)C(=O)[C@@H](NC(=O)[C@@H]2C[C@@H](F)CN2C(=O)C2(C(F)(F)F)CC(F)(F)C2)C2CC2)CCCCCCCN(C)C(=O)[C@H](Cc2cc(Cl)ccc2-c2ccc(C(C)N3CCOCC3)cc2)N(C)C1=O (stereo partly drawn) [Example 403] ({cBuCO(3,3-F2-1-CF3)}-[Pro(trans-4-F)][Gly(cPr)][NMehhhLys(Me)]L[X59]; lactam 3-C) | 20 nM | 670 nM | 10 nM | 3990 nM | 10 nM | 20 nM |  |  | 
10 | COCCn1cc(-c2ccc(Cl)cc2C[C@H]2C(=O)NCCCCC=CC[C@H](N(C)C(=O)[C@@H](NC(=O)[C@@H]3C[C@@H](F)CN3C(=O)C3(C(F)(F)F)CC(F)(F)C3)C3CC3)C(=O)N[C@@H](CC(C)C)C(=O)N2C)cn1 [Example 43] | 40 nM | 370 nM | 40 nM | 8570 nM | 30 nM | 20 nM |  |  | 
11 | CC(C)C[C@@H]1NC(=O)[C@@H](N(C)C(=O)[C@@H](NC(=O)[C@@H]2C[C@@H](F)CN2C(=O)C2(C(F)(F)F)CC(F)(F)C2)C2CC2)CCCCCCN(C)C(=O)[C@H](Cc2cc(Cl)ccc2-c2cnn(C3CC3)c2)N(C)C1=O [Example 73] | 30 nM | 930 nM | 60 nM | 3650 nM | 40 nM | 20 nM |  |  | 
12 | CC(C)C[C@@H]1NC(=O)[C@@H](N(C)C(=O)[C@@H](NC(=O)[C@@H]2C[C@@H](F)CN2C(=O)C2(C(F)(F)F)CCC2)C2CC2)CC=CCCCCNC(=O)[C@H](Cc2cc(Cl)cnc2OC(C)C)N(C)C1=O (single isomer, unassigned) [Example 136-P2] | 80 nM | 120 nM | 640 nM | 6670 nM | 450 nM | 20 nM |  |  | 
13 | CSc1cncc(-c2ccc(Cl)cc2C[C@H]2C(=O)N(C)CCCCCCC[C@H](N(C)C(=O)[C@@H](NC(=O)[C@@H]3C[C@@H](F)CN3C(=O)C3(C(F)(F)F)CC(F)(F)C3)C3CC3)C(=O)N[C@@H](CC(C)C)C(=O)N2C)c1 [Example 202] ({cBuCO(3,3-F2-1-CF3)}-[Pro(trans-4-F)][Gly(cPr)][NMehhhLys(Me)]L[X51]; lactam 3-C) | 50 nM | 1490 nM | 60 nM | 9110 nM | 40 nM | 20 nM |  |  | 
14 | CC(C)C[C@@H]1NC(=O)[C@@H](N(C)C(=O)[C@@H](NC(=O)[C@@H]2C[C@@H](F)CN2C(=O)C2(C(F)(F)F)CC(F)(F)C2)C2CC2)CCCCCCCN(C)C(=O)[C@H](Cc2cc(Cl)ccc2-c2cnn3cccnc23)N(C)C1=O [Example 297] ({cBuCO(3,3-F2-1-CF3)}-[Pro(trans-4-F)][Gly(cPr)][NMehhhLys(Me)]L[X76]; lactam 3-C) | 40 nM | 1270 nM | 30 nM | 9150 nM | 20 nM | 20 nM |  |  | 
15 | CC(C)C[C@@H]1NC(=O)[C@@H](N(C)C(=O)[C@@H](NC(=O)[C@@H]2C[C@@H](F)CN2C(=O)[C@]2(C(F)(F)F)CCCCO2)C2CC2)CCCCCCCN(C)C(=O)[C@H](Cc2cc(Cl)ccc2-c2cnn(C)c2)N(C)C1=O [Example 183] (X27-[Pro(trans-4-F)][Gly(cPr)][NMehhhLys(Me)]L[X22]; lactam 3-C) | 30 nM | 280 nM | 20 nM | 5070 nM | 10 nM | 20 nM |  |  | 
16 | CC(C)C[C@@H]1NC(=O)[C@@H](N(C)C(=O)[C@@H](NC(=O)[C@@H]2C[C@@H](F)CN2C(=O)C2(C(F)(F)F)CC(F)(F)C2)C2CC2)CC=CCCCCN(C)C(=O)[C@H](Cc2cc(F)ccc2C2=CCC(O)CC2)N(C)C1=O (stereo partly drawn) [Example 47] | 40 nM | 800 nM | 130 nM | 12900 nM | 30 nM | 20 nM |  |  | 
17 | CC(C)C[C@@H]1NC(=O)[C@@H](N(C)C(=O)[C@@H](NC(=O)[C@@H]2C[C@@H](F)CN2C(=O)C2(C(F)(F)F)CC(F)(F)C2)C2CC2)CCCCCCCNC(=O)[C@H](Cc2cc(Cl)cnc2OC2CCC2)N(C)C1=O [Example 142] ({cBuCO(3,3-F2-1-CF3)}-[Pro(trans-4-F)][Gly(cPr)][NMe(hhhLys)]L[X28]; lactam 3-C) | 40 nM | 150 nM | 190 nM | 10200 nM | 110 nM | 20 nM |  |  | 
18 | CC(C)C[C@@H]1NC(=O)[C@@H](N(C)C(=O)[C@@H](NC(=O)[C@@H]2C[C@@H](F)CN2C(=O)C2(C(F)(F)F)CC(F)(F)C2)C2CC2)CCCCCCCN(C)C(=O)[C@H](Cc2cc(Cl)ccc2C2=CCOCC2)N(C)C1=O [Example 51] ({cBuCO(3,3-F2-1-CF3)}-[Pro(trans-4-F)][Gly(cPr)][NMehhhLys(Me)]L[X104]; lactam 3-C) | 20 nM | 890 nM | 10 nM | 18800 nM | 10 nM | 20 nM |  |  | 
